Reference: patent US12065441B2, “Pyrazolopyrimidine derivative, use thereof and pharmaceutical composition” (GENGLE THERAPEUTICS, INC., priority 2018, dated 2024)
Where two headings read alike, the source gives them in different places.

Assays:
JAK1 = JAK1 (Homo sapiens, UniProt P23458); assay: Caliper Mobility Shift Assay, kinase enzyme activity, JAK1; type: biochemical; conditions: for inhibitory effect on kinase JAK1 (in words): JAK1, summary of Table 1; for IC50: JAK1, read-out: Kinase inhibitory activity (IC50, nM) JAK1
Description: (§1) The half-inhibition concentration IC50 of the compound (the concentration of the compound required to inhibit the enzyme activity to 50%) is measured by mixing the fixed enzyme with a specific substrate and different concentrations of the test compound. The measurement method used was Caliper Mobility Shift Assay, the kinases measured were JAK1, JAK2, JAK3 and TYK2, and the standard reference compound used was staurosporine.

JAK2 = JAK2 (Homo sapiens, UniProt O60674); assay: Caliper Mobility Shift Assay, kinase enzyme activity, JAK2; type: biochemical; conditions: for inhibitory effect on kinase JAK2 (in words): JAK2, summary of Table 1; for IC50: JAK2, read-out: Kinase inhibitory activity (IC50, nM) JAK2
Description: as §1

JAK3 = biological target: T1, JAK3 (Homo sapiens, UniProt P52333); assay: Caliper Mobility Shift Assay, kinase enzyme activity, JAK3; type: biochemical; conditions: for inhibitory activity on JAK3 (in words): JAK3, summary of Table 1; for IC50: JAK3, read-out: Kinase inhibitory activity (IC50, nM) JAK3
T1 sequence (P52333 1-1124): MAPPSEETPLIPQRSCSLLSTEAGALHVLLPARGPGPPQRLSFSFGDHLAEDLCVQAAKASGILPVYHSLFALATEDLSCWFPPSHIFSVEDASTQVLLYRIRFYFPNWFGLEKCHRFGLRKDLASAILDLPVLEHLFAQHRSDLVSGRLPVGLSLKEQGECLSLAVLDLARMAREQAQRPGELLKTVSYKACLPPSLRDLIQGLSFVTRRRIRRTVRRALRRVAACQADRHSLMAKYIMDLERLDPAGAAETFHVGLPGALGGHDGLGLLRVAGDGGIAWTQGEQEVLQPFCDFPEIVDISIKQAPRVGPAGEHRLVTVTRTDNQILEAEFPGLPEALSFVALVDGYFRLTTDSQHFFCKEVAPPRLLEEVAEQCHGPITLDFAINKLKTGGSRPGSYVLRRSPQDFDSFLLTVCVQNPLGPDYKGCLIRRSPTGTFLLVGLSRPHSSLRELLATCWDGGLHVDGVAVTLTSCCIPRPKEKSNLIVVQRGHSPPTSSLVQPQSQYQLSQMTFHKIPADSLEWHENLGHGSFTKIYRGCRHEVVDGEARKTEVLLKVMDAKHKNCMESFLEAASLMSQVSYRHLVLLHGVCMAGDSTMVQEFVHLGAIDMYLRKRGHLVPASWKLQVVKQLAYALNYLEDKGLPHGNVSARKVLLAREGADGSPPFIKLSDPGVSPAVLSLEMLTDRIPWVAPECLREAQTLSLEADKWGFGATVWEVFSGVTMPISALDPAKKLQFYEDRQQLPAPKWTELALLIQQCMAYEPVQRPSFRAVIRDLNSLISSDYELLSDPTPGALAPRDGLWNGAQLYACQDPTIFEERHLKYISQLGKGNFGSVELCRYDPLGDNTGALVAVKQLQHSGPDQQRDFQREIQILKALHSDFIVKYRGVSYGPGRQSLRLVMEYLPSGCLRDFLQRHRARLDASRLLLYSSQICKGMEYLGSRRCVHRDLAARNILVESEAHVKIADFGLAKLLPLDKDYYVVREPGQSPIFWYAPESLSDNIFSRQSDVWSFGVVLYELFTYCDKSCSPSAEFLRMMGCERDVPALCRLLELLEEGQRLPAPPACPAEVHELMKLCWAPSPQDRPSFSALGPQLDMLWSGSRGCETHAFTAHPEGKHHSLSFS
Description: as §1

TYK2 = TYK2 (Homo sapiens, UniProt P29597); assay: Caliper Mobility Shift Assay, kinase enzyme activity, TYK2; type: biochemical; conditions: for inhibitory activity on TYK2 (in words): TYK2, summary of Table 1; for IC50: TYK2, read-out: Kinase inhibitory activity (IC50, nM) TYK2
Description: as §1

[1] = Pharmacokinetics experiment in mice (intravenous and oral); type: in vivo; conditions: for F: 10 mg/kg oral vs 2 mg/kg intravenous; for AUC(0-t) / MRT inf / clearance / half-life / Vd / Cmax / Tmax: both sexes, mouse, blood, single dose; for half-life: read-out: Terminal t1/2 (converted); for Vd: read-out: Vss
Description: Experimental animals: mice, male and female, weight: 23-25 g;
Preparation of the test articles: The target compounds (Ig, Ii, and Ip) were prepared as 0.4 mg/mL (for intravenous administration) and 1.0 mg/mL (for oral administration), for later use. Administration route: oral administration/intravenous injection. Dosing volume and frequency: 5 mL/kg (intravenous injection) or 10 mL/kg (oral administration), single dose.
Sample collection: Blood was collected at the following time points, 5 min, 15 min, 30 min, 1 hr, 2 hr, 4 hr, 8 hr and 24 hr after administration.
Sample analysis: LC-MS/MS method was used to detect the collected samples. The instrument model used was Triple Quad 6500+.
Pharmacokinetic data analysis: WinNolin was used to fit and calculate the obtained blood drug concentration data according to the non-compartmental model method, and partial results are summarized in Table 2.

JAK2, sequence (O60674 whole entry): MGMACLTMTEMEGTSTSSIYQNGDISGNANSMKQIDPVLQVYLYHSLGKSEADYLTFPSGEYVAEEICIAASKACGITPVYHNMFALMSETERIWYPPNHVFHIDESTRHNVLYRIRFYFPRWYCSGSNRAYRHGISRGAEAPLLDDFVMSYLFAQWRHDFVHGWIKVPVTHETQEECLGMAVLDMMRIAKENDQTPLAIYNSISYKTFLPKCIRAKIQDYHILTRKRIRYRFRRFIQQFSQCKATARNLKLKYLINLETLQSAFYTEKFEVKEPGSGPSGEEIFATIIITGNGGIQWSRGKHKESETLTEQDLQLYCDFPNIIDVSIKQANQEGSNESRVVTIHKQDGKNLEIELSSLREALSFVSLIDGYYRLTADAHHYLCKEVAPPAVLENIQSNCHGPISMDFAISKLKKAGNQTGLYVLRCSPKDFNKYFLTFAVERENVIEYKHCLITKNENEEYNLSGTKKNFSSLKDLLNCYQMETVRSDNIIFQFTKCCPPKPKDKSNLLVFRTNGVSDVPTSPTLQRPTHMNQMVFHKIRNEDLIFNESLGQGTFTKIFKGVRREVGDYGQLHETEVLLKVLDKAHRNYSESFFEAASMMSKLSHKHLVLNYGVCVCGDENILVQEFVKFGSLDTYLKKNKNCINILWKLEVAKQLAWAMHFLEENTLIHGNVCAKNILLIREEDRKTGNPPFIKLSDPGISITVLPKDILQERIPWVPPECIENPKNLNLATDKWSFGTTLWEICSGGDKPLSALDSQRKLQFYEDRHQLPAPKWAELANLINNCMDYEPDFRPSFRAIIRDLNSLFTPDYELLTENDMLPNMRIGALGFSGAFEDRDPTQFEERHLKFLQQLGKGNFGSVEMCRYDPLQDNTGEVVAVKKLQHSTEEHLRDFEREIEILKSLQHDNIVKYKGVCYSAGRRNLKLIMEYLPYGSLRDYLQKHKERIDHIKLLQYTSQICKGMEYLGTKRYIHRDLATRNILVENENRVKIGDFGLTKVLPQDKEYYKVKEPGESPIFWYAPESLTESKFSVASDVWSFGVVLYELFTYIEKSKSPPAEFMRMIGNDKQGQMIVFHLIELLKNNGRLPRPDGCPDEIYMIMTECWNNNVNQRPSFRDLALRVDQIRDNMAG
TYK2, sequence (P29597 whole entry): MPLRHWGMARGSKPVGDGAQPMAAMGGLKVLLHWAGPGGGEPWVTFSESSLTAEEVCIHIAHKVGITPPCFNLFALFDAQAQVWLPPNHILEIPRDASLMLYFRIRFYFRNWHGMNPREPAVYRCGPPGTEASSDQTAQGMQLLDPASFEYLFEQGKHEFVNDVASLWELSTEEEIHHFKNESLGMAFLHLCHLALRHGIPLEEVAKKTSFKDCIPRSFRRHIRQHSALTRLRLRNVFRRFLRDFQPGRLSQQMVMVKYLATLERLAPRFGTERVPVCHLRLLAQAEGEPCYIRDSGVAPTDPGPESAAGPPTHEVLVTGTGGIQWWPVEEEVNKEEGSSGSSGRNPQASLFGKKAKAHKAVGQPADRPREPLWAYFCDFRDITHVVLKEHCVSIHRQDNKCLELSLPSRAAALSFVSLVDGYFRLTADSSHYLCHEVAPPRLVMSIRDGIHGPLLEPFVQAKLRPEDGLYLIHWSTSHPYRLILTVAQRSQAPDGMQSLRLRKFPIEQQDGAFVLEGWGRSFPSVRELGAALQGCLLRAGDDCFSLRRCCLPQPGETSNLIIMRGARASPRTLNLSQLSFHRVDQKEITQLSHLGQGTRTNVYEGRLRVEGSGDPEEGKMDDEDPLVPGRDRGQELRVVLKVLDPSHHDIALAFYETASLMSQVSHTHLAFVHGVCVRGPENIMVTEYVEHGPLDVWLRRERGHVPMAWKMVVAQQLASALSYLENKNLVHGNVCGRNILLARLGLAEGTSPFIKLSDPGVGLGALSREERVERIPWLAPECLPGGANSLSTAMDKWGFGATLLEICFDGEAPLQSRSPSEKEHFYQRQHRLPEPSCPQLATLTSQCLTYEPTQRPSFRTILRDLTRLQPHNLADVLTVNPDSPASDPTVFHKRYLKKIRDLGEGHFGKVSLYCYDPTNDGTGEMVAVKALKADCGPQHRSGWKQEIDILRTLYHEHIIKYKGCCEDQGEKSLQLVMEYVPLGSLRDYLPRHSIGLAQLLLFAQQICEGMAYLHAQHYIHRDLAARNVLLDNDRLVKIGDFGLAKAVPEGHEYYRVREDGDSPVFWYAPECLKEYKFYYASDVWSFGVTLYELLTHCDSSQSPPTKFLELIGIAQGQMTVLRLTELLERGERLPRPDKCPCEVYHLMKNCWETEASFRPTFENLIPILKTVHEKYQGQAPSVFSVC
JAK1, sequence (P23458 whole entry): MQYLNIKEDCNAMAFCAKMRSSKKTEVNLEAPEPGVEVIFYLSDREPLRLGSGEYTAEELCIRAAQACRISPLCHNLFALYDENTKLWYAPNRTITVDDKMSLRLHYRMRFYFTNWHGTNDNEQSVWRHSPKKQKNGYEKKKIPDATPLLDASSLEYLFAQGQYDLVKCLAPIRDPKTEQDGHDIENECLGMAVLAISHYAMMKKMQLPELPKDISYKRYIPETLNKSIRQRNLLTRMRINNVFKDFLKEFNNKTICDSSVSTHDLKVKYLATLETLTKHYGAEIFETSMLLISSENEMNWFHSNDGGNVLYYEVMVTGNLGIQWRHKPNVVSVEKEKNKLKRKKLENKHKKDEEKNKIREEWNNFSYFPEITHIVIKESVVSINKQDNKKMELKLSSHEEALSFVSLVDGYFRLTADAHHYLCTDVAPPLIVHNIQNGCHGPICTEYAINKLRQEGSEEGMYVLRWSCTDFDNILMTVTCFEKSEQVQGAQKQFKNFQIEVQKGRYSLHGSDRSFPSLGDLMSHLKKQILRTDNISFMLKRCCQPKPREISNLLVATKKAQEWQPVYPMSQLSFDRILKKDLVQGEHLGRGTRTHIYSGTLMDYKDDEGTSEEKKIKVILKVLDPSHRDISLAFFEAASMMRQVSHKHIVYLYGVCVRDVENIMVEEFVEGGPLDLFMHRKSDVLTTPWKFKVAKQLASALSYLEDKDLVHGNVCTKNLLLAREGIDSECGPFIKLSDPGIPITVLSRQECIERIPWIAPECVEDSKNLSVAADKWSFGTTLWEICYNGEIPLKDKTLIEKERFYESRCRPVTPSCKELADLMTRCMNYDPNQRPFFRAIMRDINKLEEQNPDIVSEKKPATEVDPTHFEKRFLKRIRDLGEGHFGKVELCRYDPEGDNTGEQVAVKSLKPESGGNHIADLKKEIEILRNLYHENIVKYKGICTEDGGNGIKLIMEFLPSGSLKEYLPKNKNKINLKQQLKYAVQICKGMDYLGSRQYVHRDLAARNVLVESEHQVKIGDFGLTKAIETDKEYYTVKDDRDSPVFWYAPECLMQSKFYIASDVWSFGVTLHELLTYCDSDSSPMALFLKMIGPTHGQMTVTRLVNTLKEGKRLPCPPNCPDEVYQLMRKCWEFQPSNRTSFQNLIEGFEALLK

Row | inhibitory effect on kinase JAK1 (in words) (JAK1) | IC50 (JAK1) | inhibitory effect on kinase JAK2 (in words) (JAK2) | IC50 (JAK2) | inhibitory activity on JAK3 (in words) (JAK3) | IC50 (JAK3) | inhibitory activity on TYK2 (in words) (TYK2) | IC50 (TYK2) | F [1] | AUC(0-t) ([1]; 2 mg/kg, intravenous injection) | MRT inf ([1]; 2 mg/kg, intravenous injection) | clearance ([1]; 2 mg/kg, intravenous injection) | half-life ([1]; 2 mg/kg, intravenous injection) | Vd ([1]; 2 mg/kg, intravenous injection) | AUC(0-t) ([1]; 10 mg/kg, oral administration) | Cmax ([1]; 10 mg/kg, oral administration) | Tmax ([1]; 10 mg/kg, oral administration) | half-life ([1]; 10 mg/kg, oral administration) | SMILES
1 | strong inhibitory effect | 58 nM | strong inhibitory effect | 47 nM | weak inhibitory activity | 2060 nM | weak inhibitory activity | 1230 nM | 51.7% | 883 ng·h/mL | 26.8 min | 37.5 mL/min/kg | 23.4 min | 0.997 L/kg | 2290 ng·h/mL | 1310 ng/mL | 22.5 min | 70.8 min | CCS(=O)(=O)N1CCC(N2CC(CC#N)(n3cc(-c4ncnc5[nH]ncc45)cn3)C2)CC1 [Compound Ig]
2 | – | – | strong inhibitory effect | 12 nM | weak inhibitory activity | 423 nM | weak inhibitory activity | 209 nM | 99.4% | 1200 ng·h/mL | 63.6 min | 27.3 mL/min/kg | 83.4 min | 1.74 L/kg | 5950 ng·h/mL | 3380 ng/mL | 15 min | 84 min | CCS(=O)(=O)N1CC(CC#N)(n2cc(-c3ncnc4[nH]ncc34)cn2)C1 [Compound Ip]
3 | strong inhibitory effect | 39 nM | strong inhibitory effect | 126 nM | weak inhibitory activity | 3770 nM | weak inhibitory activity | 2660 nM | 37.9% | 900 ng·h/mL | 35.8 min | 37.3 mL/min/kg | 50 min | 1.32 L/kg | 1710 ng·h/mL | 904 ng/mL | 60 min | 59.2 min | N#CCC1(n2cc(-c3ncnc4[nH]ncc34)cn2)CN(C2CCN(C(=O)c3ccnc(C(F)(F)F)c3F)CC2)C1 [Compound Ii]
